Measurements reported in patent US12171769B2, “Methods, compositions, and kits for treating and/or preventing a side effect associated with radiation and/or chemotherapy exposure” (BioMimetix JV, LLC, priority 2017, dated 2024).
Where two headings read alike, the source gives them in different places.

Key:
[1] = TMZ in combination with RT; cited from earlier work
[2] = tested on: platelet count
Protocol: (§1) Four different loading doses were tested, which were: 7, 14, 28 and 42 mg, and the maintenance doses were half of the respective loading dose. The loading dose was administered prior to chemoradiation, and for the duration of treatment the respective maintenance doses were administered twice a week (i.e., a patient administered a 7 mg loading dose received two separate maintenance doses of 3.5 mg each week for 8 weeks.) The primary focus of this study is to determine the maximum tolerated dose of four dose levels. […] All subjects have a diagnosis of glioblastoma (WHO grade IV) and mean age is 62.7 years (range 54 years to 80 years).
In patients receiving temozolomide the standard of care is to stop therapy for patients developing a platelet count below 100,000.

[3] = administered orally on an empty stomach; cited from earlier work
[4] = stored at 27° C.; cited from earlier work
[5] = tested on: xerostomia; conditions: 11 weeks post-RT (9 Gy); 2/1 mg/kg MnBuOE; vs unirradiated control
Protocol: Xerostomia quantification by stimulating saliva production: Mice were injected intraperitoneally with 3 μg carbomylcholine chloride (Sigma) dissolved in sterile phosphate-buffered saline. Salivation began 2 minutes after injection. Saliva was collected via pipette for 4 minutes. The volume was measured gravimetrically, assuming a density of 1 g/mL.

[6] = in vivo, 1.5 mg/kg
Source text: The magnitude of such oxidative modification is directly related to the levels of major reactive species involved in the process: H2O2 and MnBuOE.

[7] = tested on: leukocyte-endothelial cell interactions; conditions: for Effect, repeated measures ANOVA of shear rates / Effect, repeated measures ANOVA of vessel diameter / Effect, repeated measures ANOVA of blood velocity: vs baseline (saline)
Protocol: (§2) MnBuOE synthesis and administration: MnBuOE was synthesized as previously described. […] Mouse injections were administered subcutaneously, with MnBuOE dissolved in sterile saline. Mice received an initial dose of 0.2, 0.6, or 2.0 mg/kg, followed by three times per week (t.i.w.) maintenance doses of one-half of the loading dose (i.e., 0.1, 0.3, or 1.0 mg/kg, respectively) (termed 2/1, 0.6/0.3 and 0.2/0.1 dosing schedules).
(§3) A collimating cone that produced a 15 mm×40 mm radiation field was used to target the radiation beam to the salivary gland and oral cavity. The RT field included all major and minor salivary glands (located primarily in the neck region of mice), and the oral mucosa, including glands of the cheeks, lips and tongue. The target tissues were localized within the radiation field with a source-to-subject distance of 30.76 cm, using fluoroscopy at 40 kVp and 2.5 mA with a 2 mm Al filter. […] Control mice were anesthetized but not imaged fluoroscopically or irradiated.
Mice were anesthetized with 80/8 mg/kg ketamine/xylazine mixture. Acridine orange (Sigma-Aldrich, St. Louis, MO) was injected intravenously (100 μl of 0.1% acridine orange in saline). The ventral surface of the tongue was placed on a glass cover slip before mounting the mouse onto a Zeiss Observer. Z1 (Carl Zeiss A G, Oberkochen, Germany) inverted microscope equipped with Zeiss Filter Set 38.
Fluorescent excitation was performed at 470 nm, and video was obtained at 525 nm using a 40× objective. Two separate regions with at least four veins in the […] range were identified, and a 60-120 second long video at 5 frames-per-second was obtained using Zen Imaging Software (Carl Zeiss A G, Oberkochen, Germany). Mice were kept warm while anesthetized using a heated stage.
Leukocyte-endothelial cell interaction analysis: All video analysis was performed in a blinded fashion. Rolling leukocytes were defined as cells that marginated along the vessel wall and were clearly dissociated from the bulk blood flow. Four vessels were analyzed per mouse. Leukocyte counting was repeated in triplicate for each vessel and averaged to obtain the flux of rolling leukocytes (Frolling). Vessel diameter (D) and the velocity of at least one free-flowing leukocyte(s) (VL) were also measured. A pseudo shear rate (gs) was also calculated for each vessel as: gs=8VL/D. These methods have been described previously. (18)

[8] = tested on: cognitive function; conditions: eight subjects, before vs after concurrent chemoradiation (8 weeks)
Protocol: as §1
Cognitive testing included Hopkins Verbal Learning Test-Revised (HVLT-R), Trails Making A and B Tests, and Controlled Oral Wood Association Test (COWA). […] This is notable because these are the primary cognitive tests that reveal poorer performance in multiple brain mestastases patients after whole brain radiation therapy.

[9] = tested on: FaDu tumors; conditions: MnBuOE 1.5 mg/kg b.i.d.; five fractions of radiation (5-10 Gy/fraction); previous work (13); cited from earlier work
[10] = tested on: normal tissue injury following RT+cisplatin
Protocol: Mice were treated with 1×9Gy+6 mg/kg cisplatin.
as §3
Mucositis evaluation using fluorescence molecular tomography: As reported previously, we used ProSense 750EX (Perkin Elmer, Waltham, MA) to detect mucositis. ProSense 750EX is a near-infrared (NIR) imaging agent that is cleaved by cathepsins, a family of enzymes that are expressed during inflammation, (17). Mice were injected intravenously with 100 μL ProSense 750EX. Twenty-four hours after injection, mice were anesthetized via isoflurane and imaged using the Visen FMT 2500LX (Perkin Elmer). The ProSense 750EX signal was quantified using TrueQuant software (Perkin Elmer Life and Analytical Sciences, Downers Grove, IL).

[11] = tested on: mucositis
Source text: Animals: For normal tissue studies, six-to-eight week-old female C57B1/6 mice were used (Jackson Laboratory, Bar Harbor, ME). […] Mice were group housed in a barrier facility and allowed to acclimate to their new environment for at least one week before experiments.
Mucositis evaluation using fluorescence molecular tomography: As reported previously, we used ProSense 750EX (Perkin Elmer, Waltham, MA) to detect mucositis. […] The ProSense 750EX signal was quantified using TrueQuant software (Perkin Elmer Life and Analytical Sciences, Downers Grove, IL).

[12] = tested on: FaDu (human pharyngeal carcinoma) cells
Protocol: For tumor control studies, female nu/nu mice were obtained from the Duke University Breeding Facility. Mice were group housed in a barrier facility and allowed to acclimate to their new environment for at least one week before experiments.
Tumor growth delay study: FaDu (human pharyngeal carcinoma) cells were obtained from the Duke University Cell Culture facility and were confirmed to be free of mycoplasma and known rodent pathogens. Cells were grown in Dulbecco's modified Eagle's medium with 10% fetal bovine serum. Mice were injected s.c. in the right flank with 3×10^6 cells suspended in 100 ml serum-free media. Seven days after implantation mice were randomized to treatment groups that received either MnBuOE (0.6 mg/kg loading dose followed by t.i.w. 0.3 mg/kg (loading/3× weekly maintenance) MnBuOE or an equivalent volume of saline. Tumors were measured daily with calipers and the volume was calculated using the equation V=(A^2×B×π)/6, where A is the shortest diameter and B is the longest diameter. As tumors reached 200 mm^3, they randomized into radiation treatment groups consisting of three daily fractions of radiation (6, 9, 12, 15 or 17 Gy/fraction) administered on three consecutive days. Cisplatin (6 mg/kg; APP pharmaceuticals, Schaumberg, IL) was injected intraperitoneally four hours prior to the first radiation fraction. […]

[13] = tested on: GSH/GSSG; conditions: MnBuOE 0.2 mg/kg 24 hours prior to RT (9 Gy); 24 hours post-RT
Protocol: as §2

Cn1nnc2c(C(N)=O)ncn2c1=O [TMZ, 8-Carbamoyl-3-methylimidazol[5,1-d]-1,2,3,5-tetrazine-4-(3H)-one]
Grade 3/4 non-hematological toxicity: Fatigue [1]: 7% | Grade 3/4 non-hematological toxicity: infection [1]: 3% | Grade 3/4 non-hematological toxicity: nausea and vomiting with a 5HT3-RA [1]: < 1% | Grade 3/4 non-hematological toxicity: other constitutional symptoms [1]: 2% | Grade 3/4 non-hematological toxicity: rash and dermatologic side effects [1]: 1% | Grade 3/4 non-hematological toxicity: vision [1]: 1% | Non-hematological grade 2 toxicity: Fatigue [1]: 26% | Non-hematological grade 2 toxicity: infection [1]: 1% | Non-hematological grade 2 toxicity: nausea and vomiting [1]: 13% | Non-hematological grade 2 toxicity: other constitutional symptoms [1]: 7% | Non-hematological grade 2 toxicity: rash and dermatologic side effects [1]: 9% | Non-hematological grade 2 toxicity: vision [1]: 14% | patients who developed platelets below 100,000 ([2]; temozolomide + radiation without BMX-001, n=20): 9 out of 20 | bioavailable [3]: approximately 100%

N.N.[Cl][Pt][Cl] [cisplatin]
stability of reconstituted solution [4]: 20 h

manganese butoxyethyl pyridyl porphyrin [BMX-001]
stimulated salivation (xerostomia) [5]: significant (p<0.05) decreases | MnBuOE concentration in the tumor [6]: 1.5 to 2 µM | Effect, repeated measures ANOVA of shear rates ([7]; MnBuOE + RT (9 Gy)): −0.83 | Effect, repeated measures ANOVA of vessel diameter ([7]; MnBuOE + RT (9 Gy)): 0.002 | Effect, repeated measures ANOVA of blood velocity ([7]; MnBuOE + RT (9 Gy), 24 hours post-RT): 0.01 | Effect, repeated measures ANOVA of shear rates ([7]; MnBuOE alone): −20.88 | Effect, repeated measures ANOVA of vessel diameter ([7]; MnBuOE alone): 0.009 | Effect, repeated measures ANOVA of blood velocity ([7]; MnBuOE alone, 24 hours post sham RT): −0.00 | leukocyte rolling ([7]; MnBuOE treatment alone): without increasing leukocyte rolling | mean number of rolling leukocytes ([7]; combination of 0.2/0.1 MnBuOE and RT, 24 hours post-RT): decreases | patients who developed platelet counts below 100,000 ([2]; BMX-001+temozolomide + radiation, loading doses 7 mg to 28 mg/subject, N=9): None of the nine | Trails Making B Test [8]: faster scores | performance on Hopkins Verbal Learning Test-Revised (HVLT-R) ([8]; loading 7-28 mg, half dose twice a week): no degradation of performance | dose-modifying effect (TCD50 curve) [9]: 1.3 | NIR signal (mucositis) ([10]; 1×9 Gy + 6 mg/kg cisplatin, MnBuOE 0.6 mg/kg loading, t.i.w. 0.3 mg/kg for five weeks, vs saline plus RT+cisplatin): significantly less NIR signal | xerostomia (saliva production) ([10]; 10, 11 and 12 weeks, MnBuOE for the first five weeks after RT+cisplatin, data not shown): trend towards reduced xerostomia | body weight ([10]; 10 weeks post-RT+cisplatin, MnBuOE 0.6/0.3 mg/kg, vs unirradiated control mice): not significantly different | long-term ulcerations and moist desquamation in the irradiated area ([10]; RT+cisplatin, MnBuOE vs saline): lessened | NIR signal (mucositis signal) ([11]; day 11 post-RT, 9 Gy, 2/1 mg/kg MnBuOE s.c. (loading/t.i.w. maintenance), vs 0 Gy control): significantly increased | NIR signal (mucositis signal) ([11]; unirradiated mice, 2/1 mg/kg MnBuOE): did not show an appreciable NIR signal | Kaplan-Meier analysis (time to tripling of tumor volume), MnBuOE vs saline treated mice ([12]; 0.6/0.3 mg/kg, at any radiation dose): no significant differences | slope of the dose response curve of tumor inhibition (AUC of dynamic treatment effect curves), MnBuOE vs control arm ([12]; p-value=0.47): no significant difference | GSH/GSSG lower than the 0 Gy MnBuOE tongue levels [13]: 4%
